Assay results from the supplement of paper PMC6045584.
± gives the standard deviation of the averaged measurements.

Tests used:
[1] = compound: CC(=O)NCC(=O)N1[C@@H]2CC[C@H]1c1ccc(Nc3ncc(C(F)(F)F)c(NC4CCC4)n3)cc12; experiment: surviving fraction relative to DMSO-only wells; higher = less growth inhibition; conditions: exposure time: 5 days
How it was run: (§1)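 Log-phase tumour cells were seeded at 250–500 per well in 384-well plates and, from 24 hours after seeding, exposed continuously for five days to inhibitors at 0.5, 1, 5, 10, 50, 100, 500 and 1000 nM. Surviving fraction is CellTiter-Glo luminescence normalised to the median of DMSO-only wells. Luminescence was measured after 10 minutes at room temperature, and only lines screened three times with replicate Pearson r >0.7 and median Z' >0.3 were kept.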

PACLITAXEL = compound: CC(=O)O[C@H]1C(=O)[C@@]2(C)[C@H]([C@H](OC(=O)c3ccccc3)[C@]3(O)C[C@H](OC(=O)[C@H](O)[C@@H](NC(=O)c4ccccc4)c4ccccc4)C(C)=C1C3(C)C)[C@]1(OC(C)=O)CO[C@@H]1C[C@@H]2O [PACLITAXEL]; experiment: as above; conditions: exposure time: 5 days
How it was run: as §1

Test System | surviving fraction ([1]; 0.5 nM) | surviving fraction ([1]; 1 nM) | surviving fraction ([1]; 5 nM) | surviving fraction ([1]; 10 nM) | surviving fraction ([1]; 50 nM) | surviving fraction ([1]; 100 nM) | surviving fraction ([1]; 500 nM) | surviving fraction ([1]; 1000 nM) | surviving fraction (PACLITAXEL; 0.5 nM) | surviving fraction (PACLITAXEL; 1 nM) | surviving fraction (PACLITAXEL; 5 nM) | surviving fraction (PACLITAXEL; 10 nM) | surviving fraction (PACLITAXEL; 50 nM) | surviving fraction (PACLITAXEL; 100 nM) | surviving fraction (PACLITAXEL; 500 nM) | surviving fraction (PACLITAXEL; 1000 nM)
ASKA SYNOVIAL | 0.973 ± 0.052 | 0.908 ± 0.012 | 0.972 ± 0.085 | 0.912 ± 0.084 | 0.365 ± 0.018 | 0.335 ± 0.023 | 0.34 ± 0.012 | 0.386 ± 0.035 | 0.851 ± 0.028 | 0.629 ± 0.052 | 0.203 ± 0.011 | 0.194 ± 0.0031 | 0.262 ± 0.0055 | 0.23 ± 0.011 | 0.199 ± 0.016 | 0.229 ± 0.01
DU4475 BREAST | 0.776 ± 0.12 | 0.802 ± 0.15 | 0.821 ± 0.16 | 0.783 ± 0.2 | 0.49 ± 0.36 | 0.131 ± 0.097 | 0.0413 ± 0.016 | 0.0397 ± 0.0038 | 0.975 ± 0.17 | 0.946 ± 0.26 | 0.243 ± 0.069 | 0.129 ± 0.021 | 0.0387 ± 0.013 | 0.044 ± 0.0089 | 0.0463 ± 0.02 | 0.035 ± 0.0085
HOS BONE | 1.03 ± 0.013 | 1.013 ± 0.0087 | 1.01 ± 0.025 | 1.006 ± 0.0098 | 0.719 ± 0.025 | 0.675 ± 0.025 | 0.585 ± 0.03 | 0.485 ± 0.012 | 1.01 ± 0.011 | 0.95 ± 0.01 | 0.085 ± 0.003 | 0.0507 ± 0.004 | 0.0357 ± 0.004 | 0.025 ± 0.001 | 0.0223 ± 0.0011 | 0.0217 ± 0.0015
CASKI CERVIX | 0.928 ± 0.014 | 0.939 ± 0.042 | 0.968 ± 0.072 | 0.946 ± 0.067 | 0.771 ± 0.049 | 0.214 ± 0.018 | 0.199 ± 0.015 | 0.133 ± 0.0061 | 0.857 ± 0.054 | 0.619 ± 0.029 | 0.0537 ± 0.011 | 0.0343 ± 0.00058 | 0.037 ± 0.005 | 0.0387 ± 0.0067 | 0.0313 ± 0.005 | 0.0303 ± 0.0045
HCC1395 BREAST | 0.928 ± 0.15 | 1.05 ± 0.12 | 0.979 ± 0.062 | 1.04 ± 0.0025 | 0.962 ± 0.12 | 0.94 ± 0.13 | 0.991 ± 0.027 | 0.928 ± 0.092 | 0.749 ± 0.14 | 0.821 ± 0.065 | 0.782 ± 0.033 | 0.547 ± 0.11 | 0.419 ± 0.16 | 0.362 ± 0.054 | 0.396 ± 0.088 | 0.405 ± 0.051
LNCAP PROSTATE | 0.859 ± 0.059 | 0.872 ± 0.052 | 0.77 ± 0.08 | 0.893 ± 0.19 | 0.416 ± 0.044 | 0.46 ± 0.046 | 0.689 ± 0.0089 | 0.664 ± 0.097 | 0.531 ± 0.04 | 0.358 ± 0.086 | 0.054 ± 0.015 | 0.0533 ± 0.004 | 0.0417 ± 0.0015 | 0.0347 ± 0.0038 | 0.0387 ± 0.0021 | 0.0477 ± 0.0055
143B BONE | 0.98 ± 0.021 | 0.996 ± 0.013 | 1.01 ± 0.026 | 0.966 ± 0.018 | 0.868 ± 0.0085 | 0.928 ± 0.015 | 0.597 ± 0.039 | 0.495 ± 0.056 | 0.9755 ± 0.0078 | 0.99 ± 0.031 | 0.424 ± 0.016 | 0.265 ± 0.018 | 0.134 ± 0.0099 | 0.089 ± 0.013 | 0.0575 ± 0.0092 | 0.0655 ± 0.0064
HMT3552 BREAST | 1.16 | 1.06 | 1.01 | 0.934 | 0.148 | 0.47 | 0.121 | 0.116 | 0.568 | 0.133 | 0.09 | 0.091 | 0.106 | 0.099 | 0.1 | 0.094
SCC47 HEADNECK | 0.82 ± 0.0084 | 0.815 ± 0.033 | 1.01 ± 0.099 | 0.974 ± 0.1 | 1.01 ± 0.086 | 0.904 ± 0.058 | 0.542 ± 0.02 | 0.521 ± 0.047 | 1 ± 0.079 | 0.749 ± 0.029 | 0.37 ± 0.015 | 0.199 ± 0.015 | 0.143 ± 0.01 | 0.141 ± 0.0051 | 0.1213 ± 0.00058 | 0.115 ± 0.015
NCIH441 LUNG | 0.945 ± 0.064 | 0.954 ± 0.056 | 0.939 ± 0.065 | 0.927 ± 0.12 | 0.991 ± 0.022 | 0.856 ± 0.049 | 0.626 ± 0.08 | 0.588 ± 0.0087 | 0.961 ± 0.12 | 0.93 ± 0.046 | 0.529 ± 0.0097 | 0.429 ± 0.032 | 0.261 ± 0.013 | 0.303 ± 0.018 | 0.284 ± 0.013 | 0.304 ± 0.02
